Patent publication US20250064061A1, “METHOD FOR CONTROLLING NOXIOUS ARTHROPODS” (SUMITOMO CHEMICAL COMPANY, LIMITED, priority 2021, published 2025)

Experiments:
[1] = tested on: strain of German cockroaches that is resistant to multiple insecticides; experiment: Topical application test on male adult German cockroach, multiple-insecticide-resistant strain; assay type: in vivo; conditions: for LD50 Resistant: 1 μL acetone solution applied to ventral surface of thorax of male adult, mortality after 4 days, Probit method, strain with L993F sodium channel and A302S GABAergic chloride channel mutations and enhanced metabolic detoxification; for Resistance ratio: calculated by formula (2) from the LD50 values of the resistant and susceptible strains; for Control of harmful arthropods showing high resistance to permethrin, deltamethrin, fipronil, indoxacarb and fluxametamide: conclusion drawn from Table 1
Method: (§1) An acetone solution comprising a prescribed concentration of each of permethrin, deltamethrin, fipronil, indoxacarb, fluxametamide, broflanilide, nicofluprole, cyproflanilide, or isocycloseram was prepared, and 1 μL of the acetone solution was applied to a ventral surface of thorax of a male adult of German cockroach. Two strains of German cockroaches, i.e., the strain of German cockroaches that is susceptible to insecticides and the strain of German cockroaches that is resistant to multiple insecticides, were used. The strain of German cockroaches that is resistant to multiple insecticides is highly resistant to pyrethroid compounds, phenylpyrazole compounds, and oxadiazine compounds. As the resistance mechanism, the strain has the L993F mutation of voltage-dependent sodium channel resulting in pyrethroid resistance, the A302S mutation of GABAergic chloride ion channel resulting in dieldrin resistance, and enhanced metabolic detoxification activities. The application concentrations were three or more concentrations resulting in 0 to 100% of mortality of insects (comprising one or more concentrations resulting in less than 50% mortality of insects, and one or more concentrations resulting in more than 50% mortality of insects), and the number of test insects per concentration was ten in duplicate. After 4 days, the number of dead German cockroach(es) was investigated, and LD50 value was calculated by the Probit method. The mortalities of insects of 0% and 100% were corrected by the method of Miller and Tainter represented by the following formula (1), and corrected mortalities of insects were used when LD50 values were calculated. The resistance ratio was calculated according to the following formula (2) by using the obtained LD50 values. In this test, a dead insect refers to an insect in which the action was completely stopped.

[2] = tested on: strain of German cockroaches that is susceptible to insecticides; experiment: Topical application test on male adult German cockroach, insecticide-susceptible strain; assay type: in vivo; conditions: 1 μL acetone solution applied to ventral surface of thorax of male adult; mortality after 4 days; Probit method
Method: as §1

SMILES	LD50 Resistant [1]	Resistance ratio [1]	Control of harmful arthropods showing high resistance to permethrin, deltamethrin, fipronil, indoxacarb and fluxametamide [1]	LD50 Susceptible [2]
CN(C(=O)c1ccccc1)c1cccc(C(=O)Nc2c(Br)cc(C(F)(C(F)(F)F)C(F)(F)F)cc2C(F)(F)F)c1F [Broflanilide, broflanilide]	0.021 μg/insect	2.3	can effectively control	0.0093 μg/insect
O=C(Nc1c(Br)cc(C(F)(C(F)(F)F)C(F)(F)F)cc1C(F)(F)F)c1cccc(N(CC2CC2)C(=O)c2ccc(F)cc2)c1F [Cyproflanilide, cyproflanilide]	0.035 μg/insect	1.2	can effectively control	0.028 μg/insect
CC1(C)[C@H](C(=O)O[C@H](C#N)c2cccc(Oc3ccccc3)c2)[C@@H]1C=C(Br)Br [Deltamethrin, deltamethrin]	0.68 μg/insect	43	–	0.016 μg/insect
N#Cc1nn(-c2c(Cl)cc(C(F)(F)F)cc2Cl)c(N)c1[S+]([O-])C(F)(F)F (stereo not shown) [Fipronil, fipronil]	0.14 μg/insect	41	–	0.0034 μg/insect
CON=CNC(=O)c1ccc(C2=NOC(c3cc(Cl)cc(Cl)c3)(C(F)(F)F)C2)cc1C (stereo not shown) [Fluxametamide, fluxametamide]	2.7 μg/insect	46	–	0.059 μg/insect
COC(=O)N(C(=O)N1CO[C@@]2(C(=O)OC)Cc3cc(Cl)ccc3C2=N1)c1ccc(OC(F)(F)F)cc1 [Indoxacarb, indoxacarb]	>50 μg/insect	>200	–	0.25 μg/insect
CCN1OCC(NC(=O)c2ccc(C3=NOC(c4cc(Cl)c(F)c(Cl)c4)(C(F)(F)F)C3)cc2C)C1=O (stereo not shown) [Isocycloseram, isocycloseram]	0.10 μg/insect	1.7	can effectively control	0.059 μg/insect
CN(C(=O)c1cc(-c2cnn(-c3c(Cl)cc(C(F)(C(F)(F)F)C(F)(F)F)cc3Cl)c2)cnc1Cl)C1CC1 [Nicofluprole, nicofluprole]	0.0065 μg/insect	2.4	can effectively control	0.0027 μg/insect
CC1(C)C(C=C(Cl)Cl)C1C(=O)OCc1cccc(Oc2ccccc2)c1 (stereo not shown) [Permethrin, permethrin]	>50 μg/insect	>180	–	0.28 μg/insect
